Results published in patent US20030225007A1, “Sulfonamide derivatives of 3-substituted imidazol[1,2-d]-1,2,4-thiadiazoles and 3-substituted-[1,2,4] thiadiazolo[4,5-a] benzimidazole as inhibitors of fibrin cross-linking and transglutaminases” (Apotex Inc., priority 2002, published 2003).

Test system: fibrin cross-linking in human plasma clots
Experiment: Inhibition of fibrin cross-linking in plasma clots (125I-fibrinogen, SDS-PAGE)
Assay type: biochemical
Settings: platelet-depleted and platelet-rich human plasma clots; inactivator at 40, 80 and 160 μM, added before thrombin and CaCl2
Description: Citrated human plasma (0.3 mL) containing 2-4 μg/mL of ^125I-labeled fibrinogen (specific activity approx. 200 μCi/mg, at least 85% clotability, Amersham Pharmacia Biotech UK Ltd.) was clotted by the addition of CaCl2 (6.4 μL) to a final concentration of 50 mM and thrombin (6.2 μL) to a final concentration of 5 units/mL. Solutions of Factor XIIIa inactivators in DMSO were added just prior to the addition of thrombin and CaCl2. In some cases the inactivator was dissolved and added to plasma in water. To these samples, DMSO (3.2 μL) was added, to make 1% final concentration. Conversely, water (3.2 μL) was added to clots to which inactivator was added in DMSO. In control samples both DMSO (3.2 μL) and water (3.2 μL) were added in place of the inactivator solution. Typically, only 20 μL of the mixture was withdrawn before clotting (the remainder of the solution was used for the fibrinolysis assay) and incubated at 37° C. for 30 min.
100 μL of 9 M urea containing 40 mM DTT was added and the solutions were incubated at 37° C. until the clots were completely dissolved. The samples were analyzed on SDS-PAGE gels using a standard procedure. The amount of radioactivity in each electrophoretic band was quantitated using a Storm 820 (Molecular Dynamics) autoradiography system after exposing the gel to a Kodak Storage Phosphor Screen. […]

O=C(O)CN(CCCCCCNS(=O)(=O)c1ccccc1[N+](=O)[O-])c1nsc2nccn12 [H / CH2CO2H / 2-NO2-Ph, N-imidazo[1,2-d][1,2,4]thiadiazol-3-yl-N-(6-{[(2-nitrophenyl)sulfonyl]amino}hexyl)glycine]
formation of high molecular weight polymer in plasma clots: inhibits the formation of high molecular weight polymer
